{"source": "patent US20150250175A1", "about": "“PESTICIDALLY ACTIVE MIXTURES COMPRISING ANTHRANILAMIDE COMPOUNDS” (BASF SE, priority 2012, published 2015)", "key": {"[1]": {"tested_on": "boll weevil (Anthonomus grandis)", "assay": "Boll weevil (Anthonomus grandis) control, insect diet with eggs, 24-well plates", "settings": "5 days"}, "[2]": {"tested_on": "tobacco budworm (Heliothis virescens)", "assay": "Tobacco budworm (Heliothis virescens) control, insect diet with eggs, 96-well plates", "settings": "5 days"}, "[3]": {"tested_on": "Mediterranean fruitfly (Ceratitis capitata)", "assay": "Mediterranean fruitfly (Ceratitis capitata) control, insect diet with eggs, 96-well plates", "settings": "5 days"}, "[4]": {"tested_on": "green peach aphid (Myzus persicae)", "assay": "Green peach aphid (Myzus persicae) control, systemic, artificial diet under membrane, 96-well plates", "format": "in vivo", "settings": "3 days", "excerpt": "After application, 5-8 adult aphids were placed on the artificial membrane inside the microtiter plate wells. […] Aphid mortality and fecundity was then visually assessed."}, "[5]": {"tested_on": "vetch aphid (Megoura viciae)", "assay": "Vetch aphid (Megoura viciae) control, broad bean leaf disks in 24-well microtiter plates", "format": "in vivo", "settings": "sprayed on leaf disks, aphid mortality and fecundity after 5 days", "excerpt": "After application, the leaf disks were air-dried and 5-8 adult aphids placed on the leaf disks inside the microtiter plate wells. […] Aphid mortality and fecundity was then visually assessed."}, "[6]": {"settings": "0.08 + 0 ppm (mixing partner alone at 0.08 ppm)"}, "[7]": {"settings": "0 + 5 ppm (compound I alone at 5 ppm)"}, "[8]": {"settings": "0 + 0.2 ppm (compound I alone at 0.2 ppm)"}, "[9]": {"settings": "0 + 1 ppm (compound I alone at 1 ppm)"}, "[10]": {"settings": "3.2 + 0 ppm (mixing partner alone at 3.2 ppm)"}, "[11]": {"settings": "0.0016 + 0 ppm (mixing partner alone at 0.0016 ppm)"}}, "data": [{"compound": "CC[S+]([O-])c1c(C#N)nn(-c2c(Cl)cc(C(F)(F)F)cc2Cl)c1N", "note": "(centres unmarked) [Ethiprol]", "values": [{"measurement": "Average (Control %)", "setting": "[1]; 2 + 0 ppm (mixing partner alone at 2 ppm)", "result": 50, "unit": "%"}, {"measurement": "Average (Control %)", "setting": "[2]; [6]", "result": 0, "unit": "%"}, {"measurement": "Average (Control %)", "setting": "[3]; 10 + 0 ppm (mixing partner alone at 10 ppm)", "result": 0, "unit": "%"}]}, {"compound": "Cc1cc(Cl)cc(C(=O)N=S(C(C)C)C(C)C)c1NC(=O)c1cc(C(F)(F)F)nn1-c1ncccc1Cl", "note": "[Compound I-21, 2-(3-chloro-2-pyridyl)-N-[2-methyl-4-chloro-6-[(bis-2-propyl-λ^4-sulfanylidene)carbamoyl]phenyl]-5-(trifluoromethyl)pyrazole-3-carboxamide]", "values": [{"measurement": "Average (Control %)", "setting": "[1]; [7]", "result": 0, "unit": "%"}, {"measurement": "Average (Control %)", "setting": "[2]; [8]", "result": 0, "unit": "%"}, {"measurement": "Average (Control %)", "setting": "[2]; [9]", "result": 50, "unit": "%"}, {"measurement": "Average (Control %)", "setting": "[3]; [7]", "result": 0, "unit": "%"}]}, {"compound": "CCS(CC)=NC(=O)c1cc(Cl)cc(Cl)c1NC(=O)c1cc(C(F)(F)F)nn1-c1ncccc1Cl", "note": "[Compound I-16, 2-(3-chloro-2-pyridyl)-N-[2,4-dichloro-6-[(diethyl-λ^4-sulfanylidene)carbamoyl]phenyl]-5-(trifluoromethyl)pyrazole-3-carboxamide]", "values": [{"measurement": "Average (Control %)", "setting": "[4]; [9]", "result": 25, "unit": "%"}, {"measurement": "Average (Control %)", "setting": "[2]; [9]", "result": 0, "unit": "%"}, {"measurement": "Average (Control %)", "setting": "[3]; [7]", "result": 0, "unit": "%"}]}, {"compound": "CCOC(=O)OC1=C(c2cc(C)ccc2C)C(=O)N[C@]12CC[C@@H](OC)CC2", "note": "[Spirotetramat, spirotetramat, reference compound]", "values": [{"measurement": "Average (Control %)", "setting": "[5]; Spirotetramat + I-11 at 80 + 0 ppm (Spirotetramat alone, 80 ppm)", "result": 25, "unit": "%"}, {"measurement": "Average (Control %)", "setting": "[4]; [10]", "result": 0, "unit": "%"}, {"measurement": "Average (Control %)", "setting": "[4]; 80 + 0 ppm (mixing partner alone at 80 ppm)", "result": 50, "unit": "%"}, {"measurement": "Average (Control %)", "setting": "[2]; [10]", "result": 0, "unit": "%"}]}, {"compound": "N#C/N=C1\\SCCN1Cc1ccc(Cl)nc1", "note": "[Thiacloprid]", "values": [{"measurement": "Average (Control %)", "setting": "[4]; [11]", "result": 50, "unit": "%"}, {"measurement": "Average (Control %)", "setting": "[1]; [11]", "result": 0, "unit": "%"}]}, {"compound": "CCS(CC)=NC(=O)c1cc(Cl)cc(C)c1NC(=O)c1cc(C(F)(F)F)nn1-c1ncccc1Cl", "note": "[Compound I-11, 2-(3-chloro-2-pyridyl)-N-[2-methyl-4-chloro-6-[(diethyl-λ^4-sulfanylidene)carbamoyl]phenyl]-5-(trifluoromethyl)pyrazole-3-carboxamide]", "values": [{"measurement": "Average (Control %)", "setting": "[5]; Spirotetramat + I-11 at 0 + 1 ppm (I-11 alone, 1 ppm)", "result": 0, "unit": "%"}, {"measurement": "Average (Control %)", "setting": "[4]; [9]", "result": 0, "unit": "%"}, {"measurement": "Average (Control %)", "setting": "[1]; [9]", "result": 0, "unit": "%"}, {"measurement": "Average (Control %)", "setting": "[2]; [8]", "result": 0, "unit": "%"}]}, {"compound": "Spinosad", "values": [{"measurement": "Average (Control %)", "setting": "[1]; [6]", "result": 0, "unit": "%"}, {"measurement": "Average (Control %)", "setting": "[2]; [6]", "result": 0, "unit": "%"}, {"measurement": "Average (Control %)", "setting": "[2]; 0.4 + 0 ppm (mixing partner alone at 0.4 ppm)", "result": 0, "unit": "%"}, {"measurement": "Average (Control %)", "setting": "[3]; [6]", "result": 0, "unit": "%"}]}, {"compound": "CN/C(=N\\[N+](=O)[O-])NCc1cnc(Cl)s1", "note": "[Clothianidin]", "values": [{"measurement": "Average (Control %)", "setting": "[2]; [6]", "result": 0, "unit": "%"}, {"measurement": "Average (Control %)", "setting": "[3]; 1 + 0 ppm (mixing partner alone at 1 ppm)", "result": 0, "unit": "%"}]}]}
